According to patent publication US12528778B2, “Microbiocidal derivatives” (SYNGENTA CROP PROTECTION AG, priority 2019, dated 2026):

Key:
[1] = system: Mycosphaerella graminicola (Septoria tritici); assay: Mycosphaerella graminicola (Septoria tritici) / liquid culture (Septoria blotch); format: cell-based; details: Zymoseptoria tritici, PDB liquid culture, 24° C., growth inhibition determined photometrically 4-5 days after application, vs untreated control
Experimental: Example B12: Mycosphaerella graminicola (Septoria tritici)/Liquid Culture (Septoria Blotch) Conidia of the fungus from cryogenic storage are directly mixed into nutrient broth (PDB potato dextrose broth). After placing a (DMSO) solution of test compound into a microtiter plate (96-well format), the nutrient broth containing the fungal spores is added. The test plates are incubated at 24° C. and the inhibition of growth is determined photometrically 4-5 days after application. […] […]-48, and P-49.

[2] = system: Glomerella lagenarium (Colletotrichum lagenarium); assay: Glomerella lagenarium (Colletotrichum lagenarium) / liquid culture (anthracnose); format: cell-based; details: Colletotrichum orbiculare, PDB liquid culture, 24° C., growth inhibition measured photometrically 3-4 days after application, vs untreated control
Experimental: Example B2: Glomerella lagenarium (Colletotrichum lagenarium)/Liquid Culture (Anthracnose) Conidia of the fungus from cryogenic storage are directly mixed into nutrient broth (PDB potato dextrose broth). After placing a (DMSO) solution of test compound into a microtiter plate (96-well format), the nutrient broth containing the fungal spores is added. The test plates are incubated at 24° C. and the inhibition of growth is measured photometrically 3-4 days after application. […] […]-49, and P-50.

[3] = system: Monographella nivalis (Microdochium nivale); assay: Monographella nivalis (Microdochium nivale) / liquid culture (foot rot cereals); format: cell-based; details: PDB liquid culture, 24° C., growth inhibition determined photometrically 4-5 days after application, vs untreated control
Experimental: Example B5: Monographella nivalis (Microdochium nivale)/Liquid Culture (Foot Rot Cereals) Conidia of the fungus from cryogenic storage are directly mixed into nutrient broth (PDB potato dextrose broth). After placing a (DMSO) solution of test compound into a microtiter plate (96-well format), the nutrient broth containing the fungal spores is added. The test plates are incubated at 24° C. and the inhibition of growth is determined photometrically 4-5 days after application. […] […]-49, and P-50.

[4] = system: Magnaporthe grisea (Pyricularia oryzae); assay: whole plant or invertebrate; format: in vivo; details: foliar, read-out: control of Magnaporthe grisea
[5] = system: Blumeria graminis f. sp. tritici (Erysiphe graminis f. sp. tritici); assay: Blumeria graminis f. sp. tritici / wheat / leaf disc preventative (powdery mildew on wheat); format: in vivo; details: foliar, wheat leaf segments cv. Kanzler, inoculated 1 day after application, assessed 6-8 days after application, vs untreated control
Experimental: Example B3: Blumeria graminis f. sp. tritici (Erysiphe graminis f. so. tritici)/Wheat/Leaf Disc Preventative (Powdery Mildew on Wheat) Wheat leaf segments cv. Kanzler are placed on agar in a multiwell plate (24-well format) and sprayed with the formulated test compound diluted in water. The leaf disks are inoculated by shaking powdery mildew infected plants above the test plates 1 day after application. The inoculated leaf disks are incubated at 20°° C. and 60% rh under a light regime of 24 h darkness followed by 12 h light/12 h darkness in a climate chamber and the activity of a compound is assessed as percent disease control compared to untreated when an appropriate level of disease damage appears on untreated check leaf segments (6-8 days after application). […]-45, and P-50.

SMILES | inhibition of growth at 20 ppm [1] | inhibition of growth at 20 ppm [2] | inhibition of growth at 20 ppm [3] | pest or weed control at 200 ppm [4] | pest or weed control at 200 ppm [5]
COc1ncc(NC2CCC2)nc1C(=O)NC1CCC1(C)C (stereo not shown) [Compound P-2, 6-(cyclobutylamino)-N-(2,2-dimethylcyclobutyl)-3-methoxy-pyrazine-2-carboxamide] | ≥ 80% | ≥ 80% | ≥ 80% |  | 
COc1ncc(NC2CC2)nc1C(=O)NC1CCC1(C)C (stereo not shown) [Compound P-3, 6-(cyclopropylamino)-N-(2,2-dimethylcyclobutyl)-3-methoxy-pyrazine-2-carboxamide] |  | ≥ 80% | ≥ 80% |  | 
COc1ncc(Nc2cc(F)cc(F)c2)nc1C(=O)NC1CCN(c2cccc(OC(F)(F)F)c2)C1=O (stereo not shown) [Compound P-6, 6-(3,5-difluoroanilino)-3-methoxy-N-[2-oxo-1-[3-(trifluoromethoxy)phenyl]pyrrolidin-3-yl]pyrazine-2-carboxamide] |  | ≥ 80% | ≥ 80% | ≥ 80% | 
COc1ncc(Nc2cc(F)cc(F)c2)nc1C(=O)NC1(c2ccccn2)CC1 [Compound P-7, 6-(3,5-difluoroanilino)-3-methoxy-N-[1-(2-pyridyl)cyclopropyl] pyrazine-2-carboxamide] |  |  | ≥ 80% |  | 
COc1ncc(NCC(C)(C)O)nc1C(=O)NC1CCC1(C)C (stereo not shown) [Compound P-8, N-(2,2-dimethylcyclobutyl)-6-[(2-hydroxy-2-methyl-propyl)amino]-3-methoxy-pyrazine-2-carboxamide] |  | ≥ 80% | ≥ 80% |  | ≥ 80%
COc1ncc(Nc2cnsc2)nc1C(=O)NCCc1ccc(OC(F)(F)F)cc1 [Compound P-10] |  | ≥ 80% | ≥ 80% |  | 
COc1ncc(Nc2cnsc2)nc1C(=O)NCC1(C(F)(F)F)CC1 [Compound P-11] | ≥ 80% | ≥ 80% | ≥ 80% |  | 
COc1ncc(Nc2cnsc2)nc1C(=O)NCc1cccc2c1OC(F)(F)O2 [Compound P-12, N-[(2,2-difluoro-1,3-benzodioxol-4-yl)methyl]-6-(isothiazol-4-ylamino)-3-methoxy-pyrazine-2-carboxamide] | ≥ 80% | ≥ 80% | ≥ 80% |  | 
COc1ncc(Nc2cnsc2)nc1C(=O)NC1CCc2ccc(C(F)(F)F)cc21 (stereo not shown) [Compound P-14, 6-(isothiazol-4-ylamino)-3-methoxy-N-[6-(trifluoromethyl)indan-1-yl]pyrazine-2-carboxamide] | ≥ 80% | ≥ 80% | ≥ 80% | ≥ 80% | 
COc1ncc(Nc2cnsc2)nc1C(=O)NC1CCc2cc(C(F)(F)F)ccc21 (stereo not shown) [Compound P-15, 6-(isothiazol-4-ylamino)-3-methoxy-N-[5-(trifluoromethyl)indan-1-yl]pyrazine-2-carboxamide] | ≥ 80% | ≥ 80% | ≥ 80% |  | 
CCON=C(CNC(=O)c1nc(Nc2cc(F)cc(F)c2)cnc1OC)c1ncc(Cl)cc1Cl [Compound P-17, N-[2-(3,5-dichloro-2-pyridyl)-2-ethoxyimino-ethyl]-6-(3,5-difluoroanilino)-3-methoxy-pyrazine-2-carboxamide] |  | ≥ 80% | ≥ 80% |  | 
COc1ncc(Nc2cc(F)cc(F)c2)nc1C(=O)NCCc1ccc(OC(F)(F)F)cc1 [Compound P-18, 6-(3,5-difluoroanilino)-3-methoxy-N-[2-[4-(trifluoromethoxy)phenyl]ethyl]pyrazine-2-carboxamide] |  | ≥ 80% | ≥ 80% |  | 
COc1ncc(Nc2cc(F)cc(F)c2)nc1C(=O)NCC1(c2ccc(C(F)(F)F)cn2)CC1 [Compound P-19, 6-(3,5-difluoroanilino)-3-methoxy-N-[[1-[5-(trifluoromethyl)-2-pyridyl]cyclopropyl]methyl]pyrazine-2-carboxamide] |  | ≥ 80% | ≥ 80% | ≥ 80% | 
COc1ncc(Nc2cc(F)cc(F)c2)nc1C(=O)NCc1c(Cl)cncc1Cl [Compound P-23, N-[(3.5-dichloro-4-pyridyl)methyl]-6-(3,5-difluoroanilino)-3-methoxy-pyrazine-2-carboxamide] |  | ≥ 80% |  | ≥ 80% | 
COc1ncc(Nc2cc(F)cc(F)c2)nc1C(=O)NCC1COc2ccccc21 (stereo not shown) [Compound P-26, 6-(3,5-difluoroanilino)-N-(2,3-dihydrobenzofuran-3-yimethyl)-3-methoxy-pyrazine-2-carboxamide] |  | ≥ 80% |  | ≥ 80% | 
COc1ncc(Nc2cc(F)cc(F)c2)nc1C(=O)NCc1cccc2ccnn12 [Compound P-27] |  | ≥ 80% |  |  | 
COc1ncc(Nc2cc(F)cc(F)c2)nc1C(=O)NC1CCc2ccc(C(F)(F)F)cc21 (stereo not shown) [Compound P-31, 6-(3,5-difluoroanilino)-3-methoxy-N-[6-(trifluoromethyl)indan-1-yl]pyrazine-2-carboxamide] | ≥ 80% | ≥ 80% |  |  | 
COc1ncc(Nc2cc(F)cc(F)c2)nc1C(=O)NC1CCc2cc(C(F)(F)F)ccc21 (stereo not shown) [Compound P-32, 6-(3,5-difluoroanilino)-3-methoxy-N-[5-(trifluoromethyl)indan-1-yl]pyrazine-2-carboxamide] | ≥ 80% | ≥ 80% | ≥ 80% |  | 
CCON=C(CNC(=O)c1nc(Nc2cc(F)nc(F)c2)cnc1OC)c1ncc(Cl)cc1Cl [Compound P-33, N-[2-(3,5-dichloro-2-pyridyl)-2-ethoxyimino-ethyl]-6-[(2,6-difluoro-4-pyridyl)amino]-3-methoxy-pyrazine-2-carboxamide] |  | ≥ 80% |  |  | 
COc1ncc(Nc2cc(F)nc(F)c2)nc1C(=O)NCC1(C(F)(F)F)CC1 [Compound P-35, 6-[(2,6-difluoro-4-pyridyl)amino]-3-methoxy-N-[[1-(trifluoromethyl)cyclopropyl]methyl] pyrazine-2-carboxamide] |  | ≥ 80% |  | ≥ 80% | ≥ 80%
COc1ncc(Nc2cc(F)nc(F)c2)nc1C(=O)NCc1ccc(Oc2ccccc2)cc1 [Compound P-36, 6-[(2,6-difluoro-4-pyridyl)amino]-3-methoxy-N-[(4-phenoxyphenyl)methyl]pyrazine-2-carboxamide] |  | ≥ 80% |  | ≥ 80% | 
COc1ncc(Nc2cnsc2)nc1C(=O)NC1CCC1(C)C (stereo not shown) [Compound P-42, (isothiazol-4-ylamino)-N-(2,2-dimethylcyclobutyl)-6-3-methoxy-pyrazine-2-carboxamide] | ≥ 80% |  | ≥ 80% | ≥ 80% | 
CC1(C)CCC1NC(=O)c1cncc(Nc2cc(F)nc(F)c2)n1 (stereo not shown) [Compound P-46, 6-[(2,6-difluoro-4-pyridyl)amino]-N-(2,2-dimethylcyclobutyl) pyrazine-2-carboxamide] | ≥ 80% | ≥ 80% | ≥ 80% |  | 
Cc1ncc(Nc2cc(F)cc(F)c2)nc1C(=O)NC1CCC1(C)C (stereo not shown) [Compound P-47, 6-(3,5-difluoroanilino)-N-(2,2-dimethylcyclobutyl)-3-methyl-pyrazine-2-carboxamide] |  | ≥ 80% | ≥ 80% | ≥ 80% | 
CC1(NC(=O)c2cncc(Nc3cc(F)nc(F)c3)n2)CCCC1 [Compound P-49, 6-[(2,6-difluoro-4-pyridyl)amino]-N-(1-methylcyclopentyl) pyrazine-2-carboxamide] | ≥ 80% | ≥ 80% | ≥ 80% | ≥ 80% | 
Cc1ncc(Nc2cc(F)nc(F)c2)nc1C(=O)NC1CCC1(C)C (stereo not shown) [Compound P-50, 6-[(2,6-difluoro-4-pyridyl)amino]-N-(2,2-dimethylcyclobutyl)-3-methyl-pyrazine-2-carboxamide] |  | ≥ 80% | ≥ 80% | ≥ 80% | ≥ 80%
